Columns and labels:
Format in all cases: cell-based
[1] = test system: eight human cancer cell lines; test: Average cytotoxicity across the human cancer cell line panel
Text: (§1) Five serial 1:2 dilutions were made with anhydrous DMSO at 100× the final concentration used in the assay.

[2] = test system: NCI/ADR RES (human breast carcinoma) cells; test: Cell Titer-Glo cytotoxicity assay, NCI/ADR-RES
Text: as §1

[3] = test system: MCF7 (human breast carcinoma) cells; test: Cell Titer-Glo cytotoxicity assay, MCF7; conditions: inferred from racemate 13 vs 2
Text: as §1

[4] = test system: NCI-H460 (human breast carcinoma) cells; test: Cell Titer-Glo cytotoxicity assay, NCI-H460; conditions: inferred from racemate 13 vs 2
Text: as §1

S=C=NCc1cccnc1 [Compound 22, 3-(isothiocyanatomethyl)pyridine]
increase in effectiveness relative to L-sulforaphane ([1]; potency in NCI/ADR RES and selectivity over NmuMG taken together): ~30 fold
fold increase in potency over 23 ([2]; NCI/ADR RES cells): ≤ 10 fold

S=C=NCc1ccccc1 [Compound 23, 1-(isothiocyanatomethyl)benzene]
fold increase in potency over fully-saturated 18 ([1]; average IC50 compared): > 3 fold

C[S@+]([O-])CCCCN=C=S [D-sulforaphane]
% bioactive [3]: 0%
% bioactive ([2]; NCI/ADR RES, inferred from racemate 13 vs 2): 9%
% bioactive [4]: 14%

From patent publication US20130116203A1, “ISOTHIOCYNATES AND GLUCOSINOLATE COMPOUNDS AND ANTI-TUMOR COMPOSITIONS CONTAINING SAME” (priority 2011, published 2013)
